In US20230072683A1, “PYRIDO-PYRIMIDIN DERIVATIVES AND PHARMACEUTICAL COMPOSITION, FOR USE IN PREVENTING OR TREATING PI3 KINASE RELATED DISEASES, COMPRISING SAME AS ACTIVE INGREDIENT” (BORYUNG PHARMACEUTICAL CO., LTD, priority 2019, published 2023):
Where two headings read alike, the source gives them in different places.

How the values were obtained:
[1] = target: PI3K-δ (PI3K(p1108/p857) (h)) (Homo sapiens, UniProt O00329); test: Evaluation of inhibitory activity against PI3K-δ (HTRF kinase assay); assay type: biochemical; details: for inhibition at 0.1 µM: read-out: EXP_VALUE(% Inhibition) PI3K-δ 0.1 μM; for inhibition at 0.01 µM: compound concentration 0.01 μM, read-out: EXP_VALUE(% Inhibition) PI3K-δ 0.01 μM
How it was run: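 HTRF read-out (665/620 nm ratio ×10000) used Eu-labelled anti-GST, GST-tagged GRP1 PH domain and streptavidin-allophycocyanin after EDTA/PIP3 stop.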

DNA-PK(h) = DNA-PK(h) (Homo sapiens, UniProt P78527); test: Evaluation of inhibitory activity against DNA-PK (HTRF kinase assay, GST-cMyc-p53 substrate); assay type: biochemical; details: for inhibition at 0.1 µM: read-out: EXP_VALUE(% Inhibition) DNA-PK(h) 0.1 μM; for inhibition at 0.01 µM: compound concentration 0.01 μM, read-out: EXP_VALUE(% Inhibition) DNA-PK(h) 0.01 μM
How it was run: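 p53 Ser15 phosphorylation by human DNA-PK was measured by time-resolved FRET ratio (665/620 nm ×10000) using Eu-labelled anti-phospho-Ser15 and d2 anti-GST antibodies. Substrate GST-cMyc-p53 at 50 μM; Mg/ATP-initiated, 30 min at room temperature, EDTA stop.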

Sequence of PI3K-δ (PI3K(p1108/p857) (h)) (O00329 whole entry, the tested form may be a part): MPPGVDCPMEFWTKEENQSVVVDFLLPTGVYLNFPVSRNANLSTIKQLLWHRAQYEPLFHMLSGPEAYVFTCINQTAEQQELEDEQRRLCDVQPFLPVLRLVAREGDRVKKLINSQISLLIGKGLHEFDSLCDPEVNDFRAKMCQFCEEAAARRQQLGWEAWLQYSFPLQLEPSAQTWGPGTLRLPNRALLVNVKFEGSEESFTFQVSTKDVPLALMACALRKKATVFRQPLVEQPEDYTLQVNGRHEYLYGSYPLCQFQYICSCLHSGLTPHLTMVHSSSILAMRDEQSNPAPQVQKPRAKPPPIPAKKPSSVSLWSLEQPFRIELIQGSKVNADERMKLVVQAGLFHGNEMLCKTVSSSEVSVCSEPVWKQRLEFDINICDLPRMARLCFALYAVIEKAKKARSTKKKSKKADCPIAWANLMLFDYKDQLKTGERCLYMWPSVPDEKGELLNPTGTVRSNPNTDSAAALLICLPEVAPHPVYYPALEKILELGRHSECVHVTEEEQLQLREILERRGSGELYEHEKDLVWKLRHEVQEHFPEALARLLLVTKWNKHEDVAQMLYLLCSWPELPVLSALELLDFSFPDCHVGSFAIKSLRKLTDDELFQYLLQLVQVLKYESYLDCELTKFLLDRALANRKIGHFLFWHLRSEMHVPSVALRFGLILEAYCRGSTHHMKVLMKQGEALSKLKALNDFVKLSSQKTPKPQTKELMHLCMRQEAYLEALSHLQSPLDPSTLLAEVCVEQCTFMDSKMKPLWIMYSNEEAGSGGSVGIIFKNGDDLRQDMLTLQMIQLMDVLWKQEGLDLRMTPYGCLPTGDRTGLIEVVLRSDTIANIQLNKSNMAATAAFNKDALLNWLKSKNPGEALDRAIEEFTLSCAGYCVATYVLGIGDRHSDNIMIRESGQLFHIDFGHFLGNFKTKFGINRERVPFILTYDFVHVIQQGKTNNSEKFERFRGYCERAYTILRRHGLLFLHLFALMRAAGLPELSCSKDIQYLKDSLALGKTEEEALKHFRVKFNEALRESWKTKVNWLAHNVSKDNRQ
Sequence of PI3K-δ (PI3K(p1108/p857) (h)) (P27986 whole entry partner, the tested form may be a part): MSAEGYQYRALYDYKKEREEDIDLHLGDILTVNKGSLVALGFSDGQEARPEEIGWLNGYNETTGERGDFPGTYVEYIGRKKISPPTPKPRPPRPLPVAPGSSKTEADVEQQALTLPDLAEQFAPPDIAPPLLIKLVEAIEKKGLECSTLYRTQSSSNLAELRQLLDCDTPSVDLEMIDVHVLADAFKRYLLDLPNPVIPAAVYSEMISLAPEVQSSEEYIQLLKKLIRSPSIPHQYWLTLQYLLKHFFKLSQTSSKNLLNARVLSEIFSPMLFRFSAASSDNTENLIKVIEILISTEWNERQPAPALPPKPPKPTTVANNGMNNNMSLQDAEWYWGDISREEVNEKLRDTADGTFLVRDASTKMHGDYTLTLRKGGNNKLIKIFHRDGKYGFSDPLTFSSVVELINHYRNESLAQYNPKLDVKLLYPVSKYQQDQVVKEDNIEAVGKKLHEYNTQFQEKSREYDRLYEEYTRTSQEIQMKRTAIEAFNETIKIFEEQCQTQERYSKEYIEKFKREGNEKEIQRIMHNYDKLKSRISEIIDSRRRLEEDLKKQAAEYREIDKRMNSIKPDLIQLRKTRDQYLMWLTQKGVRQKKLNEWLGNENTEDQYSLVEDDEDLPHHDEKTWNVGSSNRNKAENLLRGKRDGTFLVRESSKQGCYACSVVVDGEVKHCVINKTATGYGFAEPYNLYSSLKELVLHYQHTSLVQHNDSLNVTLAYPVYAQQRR

inhibition at 0.1 µM ([1]; compound at 0.1 μM) [%]	inhibition at 0.1 µM (DNA-PK(h); compound at 0.1 μM) [%]	inhibition at 0.01 µM [1] [%]	inhibition at 0.01 µM (DNA-PK(h)) [%]	inhibition at 0.1 µM ([1]; compound concentration 0.1 μM) [%]	inhibition at 0.1 µM (DNA-PK(h); compound concentration 0.1 μM) [%]	SMILES
32	57					C[C@H](Nc1ncnc2[nH]ccc(=O)c12)c1c(Cl)c2cccc([S+]([O-])C3COC3)c2c(=O)n1-c1ccccc1 (stereo partly drawn) [Example 431, 4-(((1S)-1-(4-chloro-8-(oxetan-3-ylsulfinyl)-1-oxo-2-phenyl-1,2-dihydroisoquinolin-3-yl)ethyl)amino)pyrido[2,3-d]pyrimidin-5(8H)-one]
		9	1			C[C@H](Nc1ncnc2[nH]ccc(=O)c12)c1c(Cl)c2cccc(Nc3ccc(C(F)(F)F)cc3)c2c(=O)n1-c1ccccc1 [Example 346, (S)-4-((1-(4-chloro-1-oxo-2-phenyl-8-((4-(trifluoromethyl)phenyl)amino)-1,2-dihydroisoquinolin-3-yl)ethyl)amino)pyrido[2,3-d]pyrimidin-5(8H)-one]
		45	64	86	96	C[C@H](Nc1ncnc2[nH]ccc(=O)c12)c1c(Cl)c2cccc(-c3nc4ccccc4o3)c2c(=O)n1-c1ccccc1 [Example 317, (S)-4-((1-(8-(benzo[d]oxazol-2-yl)-4-chloro-1-oxo-2-phenyl-1,2-dihydroisoquinolin-3-yl)ethyl)amino)pyrido[2,3-d]pyrimidin-5(8H)-one]
		92	89			C[C@H](Nc1ncnc2[nH]ccc(=O)c12)c1c(Cl)c2cccc(-c3ccc(N4CCNCC4)cc3)c2c(=O)n1-c1ccccc1 [Example 148, (S)-4-((1-(4-chloro-1-oxo-2-phenyl-8-(4-(piperazin-1-yl)phenyl)-1,2-dihydroisoquinolin-3-yl)ethyl)amino)pyrido[2,3-d]pyrimidin-5(8H)-one]
		99	8			C[C@H](Nc1ncnc2[nH]ccc(=O)c12)c1c(Cl)c2cccc(C(=O)NC3CCC3)c2c(=O)n1-c1ccccc1 [Example 277, (S)-4-chloro-N-cyclobutyl-1-oxo-3-(1-((5-oxo-5,8-dihydropyrido[2,3-d]pyrimidin-4-yl)amino)ethyl)-2-phenyl-1,2-dihydroisoquinoline-8-carboxamide]
		52	23			C[C@H](Nc1ncnc2[nH]ccc(=O)c12)c1c(Cl)c2cccc(C(=O)N3CCOCC3)c2c(=O)n1-c1ccccc1 [Example 286, (S)-4-((1-(4-chloro-8-(morpholine-4-carbonyl)-1-oxo-2-phenyl-1,2-dihydroisoquinolin-3-yl)ethyl)amino)pyrido[2,3-d]pyrimidin-5(8H)-one]
80	68					C[C@H](Nc1ncnc2[nH]ccc(=O)c12)c1c(Cl)c2cccc(-c3cccs3)c2c(=O)n1-c1ccccc1 [Example 388, (S)-4-((1-(4-chloro-1-oxo-2-phenyl-8-(thiophen-2-yl)-1,2-dihydroisoquinolin-3-yl)ethyl)amino)pyrido[2,3-d]pyrimidin-5(8H)-one]
		76	41			CCOc1cnc(-c2cccc3c(Cl)c([C@H](C)Nc4ncnc5[nH]ccc(=O)c45)n(-c4ccccc4)c(=O)c23)cn1 [Example 230, (S)-4-((1-(4-chloro-8-(5-ethoxypyrazin-2-yl)-1-oxo-2-phenyl-1,2-dihydroisoquinolin-3-yl)ethyl)amino)pyrido[2,3-d]pyrimidin-5(8H)-one]
		44	81			CNC(=O)c1ccc(-c2cccc3c(Cl)c([C@H](C)Nc4ncnc5[nH]ccc(=O)c45)n(-c4ccccc4)c(=O)c23)cc1 [Example 167, (S)-4-(4-chloro-1-oxo-3-(1-((5-oxo-5,8-dihydropyrido[2,3-d]pyrimidin-4-yl)amino)ethyl)-2-phenyl-1,2-dihydroisoquinolin-8-yl)-N-methylbenzamide]
		61	10	94	65	Cc1c(F)cccc1-c1cccc2c(Cl)c([C@H](C)Nc3ncnc4[nH]ccc(=O)c34)n(-c3ccccc3)c(=O)c12 [Example 109, (S)-4-((1-(4-chloro-8-(3-fluoro-2-methylphenyl)-1-oxo-2-phenyl-1,2-dihydroisoquinolin-3-yl)ethyl)amino)pyrido[2,3-d]pyrimidin-5(8H)-one]
		69	44			C[C@H](Nc1ncnc2[nH]ccc(=O)c12)c1c(Cl)c2cccc(-c3ccc(-n4cccc4)nc3)c2c(=O)n1-c1ccccc1 [Example 3, (S)-4-((1-(8-(6-(1H-pyrrol-1-yl)pyridin-3-yl)-4-chloro-1-oxo-2-phenyl-1,2-dihydroisoquinolin-3-yl)ethyl)amino)pyrido[2,3-d]pyrimidin-5(8H)-one]
		31.5	-2.5	20.4	3.2	C[C@H](Nc1ncnc2[nH]ccc(=O)c12)c1c(Cl)c2cccc(C#Cc3ccc(-c4ccccc4)cc3)c2c(=O)n1-c1ccccc1 [Example 310, (S)-4-((1-(8-([1,1′-biphenyl]-4-ylethynyl)-4-chloro-1-oxo-2-phenyl-1,2-dihydroisoquinolin-3-yl)ethyl)amino)pyrido[2,3-d]pyrimidin-5(8H)-one]
		105	78	102	97	C[C@H](Nc1ncnc2[nH]ccc(=O)c12)c1c(Cl)c2cccc(-c3ccc4c(c3)OCCO4)c2c(=O)n1-c1ccccc1 [Example 253, (S)-4-((1-(4-chloro-8-(2,3-dihydrobenzo[b][1,4]dioxin-6-yl)-1-oxo-2-phenyl-1,2-dihydroisoquinolin-3-yl)ethyl)amino)pyrido[2,3-d]pyrimidin-5(8H)-one]
85	16					C[C@H](Nc1ncnc2[nH]ccc(=O)c12)c1cc2cccc(-c3cnc(C(C)(C)O)nc3)c2c(=O)n1-c1ccccc1 [Example 386, (S)-4-((1-(8-(2-(2-hydroxypropan-2-yl)pyrimidin-5-yl)-1-oxo-2-phenyl-1,2-dihydroisoquinolin-3-yl)ethyl)amino)pyrido[2,3-d]pyrimidin-5(8H)-one]
		104	8			CCCNC(=O)c1cccc2c(Cl)c([C@H](C)Nc3ncnc4[nH]ccc(=O)c34)n(-c3ccccc3)c(=O)c12 [Example 275, (S)-4-chloro-1-oxo-3-(1-((5-oxo-5,8-dihydropyrido[2,3-d]pyrimidin-4-yl)amino)ethyl)-2-phenyl-N-propyl-1,2-dihydroisoquinoline-8-carboxamide]
		76	27			CCCC(=O)c1cccc2c(Cl)c([C@H](C)Nc3ncnc4[nH]ccc(=O)c34)n(-c3ccccc3)c(=O)c12 [Example 268, (S)-4-((1-(8-butyryl-4-chloro-1-oxo-2-phenyl-1,2-dihydroisoquinolin-3-yl)ethyl)amino)pyrido[2,3-d]pyrimidin-5(8H)-one]
		71	46			C[C@H](Nc1ncnc2[nH]ccc(=O)c12)c1c(Cl)c2ccccc2c(=O)n1-c1ccccc1 [Example 38, (S)-4-((1-(4-chloro-1-oxo-2-phenyl-1,2-dihydroisoquinolin-3-yl)ethyl)amino)pyrido[2,3-d]pyrimidin-5(8H)-one]
		85	83	92	97	C[C@H](Nc1ncnc2[nH]ccc(=O)c12)c1c(Cl)c2cccc(-c3ccncc3)c2c(=O)n1-c1ccccc1 [Example 134, (S)-4-((1-(4-chloro-1-oxo-2-phenyl-8-(pyridin-4-yl)-1,2-dihydroisoquinolin-3-yl)ethyl)amino)pyrido[2,3-d]pyrimidin-5(8H)-one]
		38	28			C[C@H](Nc1ncnc2[nH]ccc(=O)c12)c1c(Cl)c2cccc(-c3ncc[nH]3)c2c(=O)n1-c1ccccc1 [Example 287, (S)-4-((1-(4-chloro-8-(1H-imidazol-2-yl)-1-oxo-2-phenyl-1,2-dihydroisoquinolin-3-yl)ethyl)amino)pyrido[2,3-d]pyrimidin-5(8H)-one]
		84	35			C[C@H](Nc1ncnc2[nH]ccc(=O)c12)c1c(Cl)c2cccc(-c3cnc(OCc4ccccc4)nc3)c2c(=O)n1-c1ccccc1 [Example 146, (S)-4-((1-(8-(2-(benzyloxy)pyrimidin-5-yl)-4-chloro-1-oxo-2-phenyl-1,2-dihydroisoquinolin-3-yl)ethyl)amino)pyrido[2,3-d]pyrimidin-5(8H)-one]
49	18					CC(C)Oc1cnc(-c2cccc3c(Cl)c([C@H](C)Nc4ncnc5[nH]ccc(=O)c45)n(-c4ccccc4)c(=O)c23)cn1 [Example 376, (S)-4-((1-(4-chloro-8-(5-isopropoxypyrazin-2-yl)-1-oxo-2-phenyl-1,2-dihydroisoquinolin-3-yl)ethyl)amino)pyrido[2,3-d]pyrimidin-5(8H)-one]
		42	33	88	78	C[C@H](Nc1ncnc2[nH]ccc(=O)c12)c1c(Cl)c2cccc(-c3ccc(N4CCCCC4)cc3)c2c(=O)n1-c1ccccc1 [Example 88, (S)-4-((1-(4-chloro-1-oxo-2-phenyl-8-(4-(piperidin-1-yl)phenyl)-1,2-dihydroisoquinolin-3-yl)ethyl)amino)pyrido[2,3-d]pyrimidin-5(8H)-one]
